Our source for the IC50 values is patent US20230406853A1, “COVALENT CDK2-BINDING COMPOUNDS FOR THERAPEUTIC PURPOSES” (Umbra Therapeutics, Inc., priority 2021, published 2023).

Some results are limits rather than exact numbers.

The assay deals with CycE1-CDK2 (Homo sapiens, UniProt P24941). The experiment in a line: Cdk2 Enzymatic TR-FRET Assay. To be noted: CDK2/CycE 5 nM, ATP 100 μM, 60 minutes pre-incubation with compound; read-out: CDK2 Kinase. The assay is classed as biochemical. The text has this: A TR-FRET system was used to detect CycE1-CDK2 kinase activity. The assay used a Europium-labeled anti-phospho-Ser/Thr antibody and ULight™-labeled peptide substrate (eIF4E-binding protein 1). When CycE1-CDK2 phosphorylates the peptide the phosphorylated Thr is recognized by the Europium-labeled anti-phospho-Ser/Thr antibody. Upon excitation of the Europium donor fluorophore at 337 nm, energy is transferred to the ULight™ acceptor dye on the substrate, resulting in the emission of light at 665 nm. The fluorescent signal is proportional to the level of ULight™ peptide phosphorylation and to the kinase activity.
The stock solution was prepared as follows: • 1× Reaction buffer: 50 mM HEPES pH 7.5, 10 mM MgCl2, 0.5 mM TCEP, 0.01% Tween®20, 1 mM EGTA, 0.001% fatty acid free (faf)-BSA; • 1× Detection buffer: equilibrate the Detection buffer at RT for at least 20 minutes then dilute 10-fold the stock in water; • 4×ENZYME mix: CDK2/CycE enzyme (5 nM final concentration in kinase reaction) in 1× Reaction buffer; • 4×SUBSTRATE mix: 4E-BP substrate (50 nM final concentration in kinase reaction)+ATP (100 μM final concentration in kinase reaction) in 1× Reaction buffer • 2×STOP/DETECTION mix: EDTA (10 mM final concentration in assay)+Anti-Phosphate antibody (0.5 nM final concentration in assay) in 1× Detection buffer • Neutral Control: Assay with no inhibition (MAX activity) • Inhibitor Control: Assay with IC100 (1 mM) reference inhibitor JNJ7706621 (MIN activity)
The assay was assembled directly in a white, small volume, Proxiplate (PerkinElmer) as follows: • Step 1: Charge compounds=5 μL/well • Step 2: Charge kinase=2.5 μL/well→total volume 7.5 μL/well • The plate is sealed and incubated at room temperature for 60 minutes • Step 3: Substrate mix (substrate/ATP)=2.5 μL/well→total enzymatic reaction volume 10 μL/well • The plate is sealed and incubated at room temperature for 60 minutes • Step 4: Stop/Detection mix (EDTA/antibody)=10 μL/well→total volume 20 μL/well • The plate is sealed and incubated at room temperature for at least 2 hours and fluorescence signal is measured at PHERAstar FSX The reading conditions are the followings for PHERAstar FSX:
A 384-microtiter plate (MTP), containing 20 test compounds in eight-points dose response, is prepared. Test compounds dose response curves are prepared in automation in 100% DMSO in a CyBio Felix, starting from a DMSO stock solution of 10 mM. To obtain the eight-points dose-response curve, a serial dilution protocol in 100% DMSO is performed for each compound by using a 96 MTP as a support. 20 μL of the 10 mM stock solutions are transferred in row A of a 96 MTP U-bottom from column 2 to 11 for a total of 10 compounds/plate. Starting from the 10 mM stock, serial dilutions across rows, from A to B and proceeding up to H, are performed for each compound by transferring 6.3 μL of the more concentrated fluid in 13.7 μL of 100% DMSO.
In order to generate duplicate data points each well of the 96 MTP is then replicated into two wells of a 384 MTP plate for each compound and for each concentration to be tested. The 384 MTP compound plate is used as source plate in a “mother to child” process with a CyBi®-Well dispenser in which 1 μL of compound is moved into a destination plate pre-filled with 24 μL of reaction buffer, obtaining 2× concentrated compound solution.
Genedata Screener® 17.0 was used for data analysis. In the implemented workflow, the following calculations were conducted: • Calculate the Response Value (KRV) from the respective original data as follow:
HTRF Assay: Ratio=665 nm_FRET/620 nm_Ab*10000 • Calculate the % Inhibition of the compound (Inhibitory effect). KRV was normalized versus Neutral Controls and Inhibitor Controls (JNJ7706621) to obtain Activity % according to the following formula:
Activity %=−100*(x−<Neutral Control>)/(<Inhibitor Control>−<Neutral Control>) […]
On to `O=c1ccc2cnc(NC3CCOCC3)nc2n1CCCS(=O)(=O)n1cnc(C2CC2)n1` [Compound 257], for which the IC50 was less than 10 µM.
For `CS(=O)(=O)N1CCC(Nc2ncc3ccc(=O)n(Cc4ccc(S(=O)(=O)n5cnc(-c6ccccc6)n5)cc4)c3n2)CC1` [Compound 242], the IC50 is less than 10 µM.
As for `CS(=O)(=O)N1CCC(Nc2ncc3cc(Cl)c(=O)n(CCCS(=O)(=O)n4cnc(-c5ccccc5)n4)c3n2)CC1` [Compound 287], the figure is less than 10 µM; as for `CS(=O)(=O)N1CCC(Nc2ncc3ccc(=O)n(CC(=O)Nc4ccc(S(=O)(=O)n5cnc(C6CCC6)n5)cc4)c3n2)CC1` [Compound 258], greater than 200 µM; as for `COCCc1cc2cnc(NC3CCN(S(C)(=O)=O)CC3)nc2n(CCCS(=O)(=O)n2cnc(C3CC3)n2)c1=O` [Compound 288], less than 10 µM.
`CCOCc1cc2cnc(NC3CCN(S(C)(=O)=O)CC3)nc2n(CCCS(=O)(=O)n2cnc(C3CC3)n2)c1=O` [Compound 261]: the IC50 lay within 10 to 100 µM.
As for `CS(=O)(=O)N1CCC(Nc2ncc3cc(C(F)F)c(=O)n(CC(=O)Nc4ccc(S(=O)(=O)n5cnc(C6CC6)n5)cc4)c3n2)CC1` [Compound 234], the figure is less than 10 µM; as for `O=c1ccc2cnc(NC3CCOC3)nc2n1CCCS(=O)(=O)n1cnc(C2CC2)n1` (centres unmarked) [Compound 267], 10 to 100 µM; as for `CS(=O)(=O)N1CCC(Nc2ncc3ccc(=O)n(CCS(=O)(=O)n4cnc(C5CC5)n4)c3n2)CC1` [Compound 264], less than 10 µM.
`CC(C)CNc1ncc2ccc(=O)n(CC(=O)Nc3ccc(S(=O)(=O)n4cnc(C5CC5)n4)cc3)c2n1` [Compound 292]: the IC50 is greater than 200 µM.
Under `CNc1ncc2ccc(=O)n(CC(=O)Nc3ccc(S(=O)(=O)n4cncn4)cc3)c2n1` [Compound 247] stands less than 10 µM.
On to `CS(=O)(=O)N1CCC(Nc2ncc3cc(CCO)c(=O)n(CCCS(=O)(=O)n4cnc(-c5ccccc5)n4)c3n2)CC1` [Compound 284], for which the IC50 was less than 10 µM.
Under `CS(=O)(=O)N1CCC(Nc2ncc3ccc(=O)n(CC(=O)Nc4ccc(S(=O)(=O)n5cncn5)cc4)c3n2)CC1` [Compound 228] stands less than 10 µM; under `CS(=O)(=O)N1CCC(Nc2ncc3cc(C(F)F)c(=O)n(CCOC(=O)c4ccc(S(=O)(=O)n5cnc(C6CC6)n5)cc4)c3n2)CC1` [Compound 227], less than 10 µM.
For the molecule `Cc1cc(NC(=O)Cn2c(=O)ccc3cnc(NC4CCN(S(C)(=O)=O)CC4)nc32)ccc1S(=O)(=O)n1cnc(C2CC2)n1` [Compound 239], the IC50 is less than 10 µM.
Consider `O=c1ccc2cnc(NC3CCCCCC3)nc2n1CCCS(=O)(=O)n1cnc(C2CC2)n1` [Compound 270], for which the IC50 was less than 10 µM.
With `CS(=O)(=O)N1CCC(Nc2ncc3cc(CCO)c(=O)n(CCCS(=O)(=O)n4cncn4)c3n2)CC1` [Compound 297], the IC50 is less than 10 µM.
As for `CS(=O)(=O)N1CCC(Nc2ncc3ccc(=O)n(CCCS(=O)(=O)n4cncn4)c3n2)CC1` [Compound 244], the figure is less than 10 µM; as for `CS(=O)(=O)N1CCC(Nc2ncc3ccc(=O)n(CC(=O)Nc4ccc(S(=O)(=O)n5cnc(CO)n5)cc4)c3n2)CC1` [Compound 259], less than 10 µM.
`CC(C(=O)Nc1ccc(S(=O)(=O)n2cnc(C3CC3)n2)cc1)n1c(=O)ccc2cnc(NC3CCN(S(C)(=O)=O)CC3)nc21` (centres unmarked) [Compound 254]: the IC50 is less than 10 µM.
Take `O=C(Cn1c(=O)ccc2cnc(NC3CCOCC3)nc21)Nc1ccc(S(=O)(=O)n2cnc(C3CC3)n2)cc1` [Compound 279]: the IC50 is less than 10 µM.
As for `CC(C)c1ncn(S(=O)(=O)c2ccc(NC(=O)Cn3c(=O)ccc4cnc(NC5CCN(S(C)(=O)=O)CC5)nc43)cc2)n1` [Compound 255], the IC50 was less than 10 µM.
As for `CS(=O)(=O)N1CCC(Nc2ncc3cc(CO)c(=O)n(CCCS(=O)(=O)n4cncn4)c3n2)CC1` [Compound 296], the figure is less than 10 µM.
In the case of `O=C(Cn1c(=O)ccc2cnc(NC3CCOC3)nc21)Nc1ccc(S(=O)(=O)n2cnc(C3CC3)n2)cc1` (centres unmarked) [Compound 275], the IC50 was less than 10 µM.
On to `O=C(Cn1c(=O)ccc2cnc(NC3CCCCCC3)nc21)Nc1ccc(S(=O)(=O)n2cnc(C3CC3)n2)cc1` [Compound 295], for which the IC50 was greater than 200 µM.
As for `CS(=O)(=O)N1CCC(Nc2ncc3ccc(=O)n(Cc4ccc(S(=O)(=O)n5cncn5)cc4)c3n2)CC1` [Compound 241], the figure is less than 10 µM.
Turning to `O=c1ccc2cnc(NC3CC(F)(F)C3)nc2n1CCCS(=O)(=O)n1cnc(C2CC2)n1` [Compound 263], the IC50 was less than 10 µM.
As for `CS(=O)(=O)N1CCC(Nc2ncc3ccc(=O)n(CCOCCCS(=O)(=O)n4cncn4)c3n2)CC1` [Compound 231], the figure is less than 10 µM; as for `CC(=O)Nc1ncn(S(=O)(=O)c2ccc(NC(=O)Cn3c(=O)ccc4cnc(NC5CCN(S(C)(=O)=O)CC5)nc43)cc2)n1` [Compound 272], less than 10 µM; as for `CS(=O)(=O)N1CCC(Nc2ncc3cc(C(F)F)c(=O)n(CCOC(=O)c4ccc(S(=O)(=O)n5cncn5)cc4)c3n2)CC1` [Compound 226], less than 10 µM.
As to `Cc1cc(S(=O)(=O)n2cncn2)ccc1NC(=O)Cn1c(=O)ccc2cnc(NC3CCN(S(C)(=O)=O)CC3)nc21` [Compound 250], the IC50 was less than 10 µM.
On to `CN1CCC(Nc2ncc3ccc(=O)n(CC(=O)Nc4ccc(S(=O)(=O)n5cnc(C6CC6)n5)cc4)c3n2)CC1` [Compound 280], for which the IC50 was greater than 200 µM.
Turning to `O=c1ccc2cnc(NC3CC3)nc2n1CCCS(=O)(=O)n1cnc(C2CC2)n1` [Compound 271], the IC50 is less than 10 µM.
For the molecule `Cc1cc(NC(=O)Cn2c(=O)ccc3cnc(NC4CCN(S(C)(=O)=O)CC4)nc32)ccc1S(=O)(=O)n1cnc(-c2ccccc2)n1` [Compound 238], the IC50 is less than 10 µM.
As for `Cc1cc2cnc(NC3CCN(S(C)(=O)=O)CC3)nc2n(CCCS(=O)(=O)n2cncn2)c1=O` [Compound 298], the figure is less than 10 µM.
As for `CS(=O)(=O)N1CCC(Nc2ncc3cc(CO)c(=O)n(CCCS(=O)(=O)n4cnc(C5CC5)n4)c3n2)CC1` [Compound 300], the IC50 is less than 10 µM.
Turning to `CS(=O)(=O)N1CCC(Nc2ncc3cc(Cl)c(=O)n(CCCS(=O)(=O)n4cnc(C5CC5)n4)c3n2)CC1` [Compound 286], the IC50 was less than 10 µM.
Under `CS(=O)(=O)N1CCC(Nc2ncc3cc(Cl)c(=O)n(CCCS(=O)(=O)n4cncn4)c3n2)CC1` [Compound 285] stands less than 10 µM; under `CS(=O)(=O)N1CCC(Nc2ncc3ccc(=O)n(CCS(=O)(=O)n4cnc(-c5ccccc5)n4)c3n2)CC1` [Compound 274], less than 10 µM.
Under `Cc1cc(NC(=O)Cn2c(=O)ccc3cnc(NC4CCN(S(C)(=O)=O)CC4)nc32)ccc1S(=O)(=O)n1cncn1` [Compound 237] stands less than 10 µM.
As for `CS(=O)(=O)N1CCC(Nc2ncc3cc(CO)c(=O)n(CCCS(=O)(=O)n4cnc(-c5ccccc5)n4)c3n2)CC1` [Compound 290], the IC50 is less than 10 µM.
Take `CC(C(=O)Nc1ccc(S(=O)(=O)n2cncn2)cc1)n1c(=O)ccc2cnc(NC3CCN(S(C)(=O)=O)CC3)nc21` (centres unmarked) [Compound 294]: the IC50 is less than 10 µM.
With `Cc1cc2cnc(NC3CCN(S(C)(=O)=O)CC3)nc2n(CCCS(=O)(=O)n2cnc(-c3ccccc3)n2)c1=O` [Compound 299], the IC50 was less than 10 µM.
`Cc1cc2cnc(NC3CCN(S(C)(=O)=O)CC3)nc2n(CCCS(=O)(=O)n2cnc(C3CC3)n2)c1=O` [Compound 289]: the IC50 is less than 10 µM.
